Experimental data from patent EP1484329A1, “Indole derivatives with apoptosis inducing activity” (Zentaris GmbH, priority 2003, dated 2004).
Converted amounts (≈) assume the structure as drawn. Where two headings read alike, the source gives them in different places.

Key:
DNA-Topoisomerase II = DNA-Topoisomerase II (Homo sapiens, UniProt P11388); experiment: kDNA decatenation assay for topoisomerase II activity; type: biochemical; details: tested at 100, 31.6 and 10 µM
Description: In diesem von P. Arimondo (Anti-Cancer Drug Design 2000, 15 (6), 413-421) beschriebenen Assay wird kDNA mit humaner DNA-Topoisomerase II in Abwesenheit oder Gegenwart der Testverbindungen behandelt. Die Testung der erfindungsgemäßen Verbindungen 2, 4 und 5 erfolgte hierbei bei drei unterschiedlichen Konzentrationen (100, 31.6 und 10 µM). Zum Vergleich setzte man eine Positivkontrolle und die Referenzverbindungen m-Amsacrin (m-Amsa), Paclitaxel und Vincristine bei einer jeweiligen Konzentration von 100µM ein.
Zu 1µL vorgelegter Testsubstanz (20fach konzentriert in 100% DMSO) werden 2µL 10x Assay Puffer, 1µL kDNA (200ng), 0.5µL human Topoisomerase II (1 unit) und 15,5µL H2O pipettiert und gemischt.
Die Reaktionsansätze werden in den auf 37°C vorgeheizten Heizblock gestellt und 10min bei 37°C inkubiert. Die Inkubation wird nach Zugabe von 4µL 5x Stop Puffer gestoppt und nachfolgend die Substanz mit CIA extrahiert. Danach werden 20µL des Überstandes auf ein 1 % Agarosegel mit 0,25µg/mL Ethidiumbromid aufgetragen und 1h bei 100V aufgetrennt. Zum Schluss wird das Gel unter UV-Anregung fotografiert (s. Graph 1). Die Quantifizierung der Inhibierung der Decatenation von kDNA erfolgt mit der GeIPro® Analyzer Software (s. Graph 2) [formula] [formula]

A549 = experiment: XTT proliferation assay, A549; type: cell-based, human; details: Homo sapiens, read-out: XTT Proliferationsassay, EC50 A549
Description: (§1) Die Substanzen 1,2, 4-6 wurden in einem Proliferationstest an etablierten Tumorzelllinien auf ihre anti-proliferative Aktivität hin untersucht (D.A. Scuderio et al. Cancer Res. 1988, 48, 4827-4833). Der verwendete Test bestimmt die zelluläre Dehydrogenase-Aktivität und ermöglicht eine Bestimmung der Zellvitalität und indirekt der Zellzahl. Bei den verwendeten Zelllinien handelt es sich um die humane Cervixkarzinom Zelllinie KB/HeLa (ATCC CCL17), die ovariale Adenokarzinomzelllinie SKOV-3 (ATCC HTB77), die humane Glioblastom Zelllinie SF-268 (NCI 503138) und die Lungenkarzinom Zelllinie NCI-H460 (NCI 503473). Des weiteren wurde zur Untersuchung der Zellzyklus-spezifischen Wirkung der Substanz ein RKOp27 Zellsystem verwendet (M. Schmidt et al. Oncogene19(20):2423-9, 2000). Bei RKO handelt es sich um eine humane Kolonkarzinomlinie, in der der Zellzyklusinhibitor p27 ^kip1 mittels des Ecdyson Expressionssystems induziert zur Expression gebracht und zu einem Zellzyklusarrest spezifisch in G2 geführt werden kann. Eine unspezifisch wirkende Substanz hemmt die Proliferation unabhängig davon, ob die RKO Zelle in G1 oder G2 arretiert ist oder nicht. Zellzyklus-spezifische Substanzen wie beispielsweise Tubulininhibitoren sind hingegen nur dann zytotoxisch, wenn Zellen nicht arretiert sind und der Zellzyklus durchlaufen wird. In Tabelle 1 ist die zytotoxische bzw. wachstumshemmende Aktivität der beschriebenen Verbindungen mit / ohne Expression von p27^kip1gezeigt. Die getesteten Verbindungen zeigten im induzierten Zustand von p27^kiP1 keine zytotoxische Aktivität. Die Ergebnisse zeigen eine sehr potente Hemmung der Proliferation ausgewählter Tumorzelllinien durch die genannten Substanzen. Tabelle 1:
(§2) Zur weiteren Charakterisierung wurden die Substanzen 1-6 an einem Panel von 7 humanen Tumorzelllinien auf ihre anti-proliferative Wirkung hin untersucht. Bei den untersuchten Zelllinien handelt es sich um die humanen Glioma Zelllinien A172 (ATCC CRL-1620) und U118 (ATCC HTB-15), die humane Lungenkarzinom Zelllinie A549, das humane epidermoide Karzinom A431 (ATCC CRL-2592), die humanen Prostatakarzinom Zelllinien DU145 (ATCC HTB-81) und PC3 (ATCC CRL-1435) und die humane Kolon Adenokarzinomzelllinie HT29 (ATCC HTB-38). Es handelt sich hierbei um sehr gut charakterisierte, etablierte Zelllinien, die von ATCC, ECACC bzw. NCI erhalten und in Kultur genommen wurden. Die in Tab. […]

Rindertubulin = experiment: Inhibition of tubulin polymerisation in vitro; type: biochemical, Rind; details: Tubulin with 30% MAPs; mean of two independent experiments
Description: In diesem Test wird durch Zyklen von Polymerisation und Depolymerisation aufgereinigtes Tubulin eingesetzt, welches durch Zugabe von GTP und Erwärmung zur Polymerisation gebracht wird. […]

RKOp27 = experiment: XTT proliferation assay, RKOp27 cell system with / without induced p27kip1 expression; type: cell-based; details: Homo sapiens
Description: as §1, with “Substanzen.” for “Substanzen. Tabelle 1:”

P388ADR = experiment: XTT proliferation assay, P388ADR (doxorubicin-resistant); type: cell-based, murine
Description: as §1
Zur weiteren Charakterisierung wurden die Substanzen 1,2,4-6 gegenüber multi drug resistenten Zelllinien im Vergleich zu den nicht-resistenten Wildtypzelllinien untersucht.
Bei den untersuchten Zelllinien handelt es sich um die murine L1210, die akute myeloische Leukaemie Zelllinie LT12 und um die resistenten Linien L1210/mdr und LT12/mdr. Außerdem wurden die murine P388 Zelllinie (methyl-cholanthreneinduced lymphoid neoplasm) sowie die Doxorubicin-resistente P388 als Testsysteme herangezogen.

PC3 = experiment: XTT proliferation assay, PC3; type: cell-based, human; details: Homo sapiens, read-out: XTT Proliferationsassay, EC50 PC3
Description: as §1, §2

DU145 = experiment: XTT proliferation assay, DU145; type: cell-based, human; details: Homo sapiens, read-out: XTT Proliferationsassay, EC50 DU145
Description: as §1, §2

HT29 = experiment: XTT proliferation assay, HT29; type: cell-based, human; details: Homo sapiens, read-out: XTT Proliferationsassay, EC50 HT29
Description: as §1, §2

[1] = RKOP27, without expression of p27kip1, read-out: XTT Proliferationsassay, EC50 RKOP27
[2] = RKOP27 ind., p27kip1 expression induced (cells arrested), read-out: XTT Proliferationsassay, EC50 RKOP27 ind.
[3] = Mus musculus, P388/ADR; read-out: XTT Proliferationsassay, EC50 P388ADR

DNA-Topoisomerase II, sequence (P11388 whole entry): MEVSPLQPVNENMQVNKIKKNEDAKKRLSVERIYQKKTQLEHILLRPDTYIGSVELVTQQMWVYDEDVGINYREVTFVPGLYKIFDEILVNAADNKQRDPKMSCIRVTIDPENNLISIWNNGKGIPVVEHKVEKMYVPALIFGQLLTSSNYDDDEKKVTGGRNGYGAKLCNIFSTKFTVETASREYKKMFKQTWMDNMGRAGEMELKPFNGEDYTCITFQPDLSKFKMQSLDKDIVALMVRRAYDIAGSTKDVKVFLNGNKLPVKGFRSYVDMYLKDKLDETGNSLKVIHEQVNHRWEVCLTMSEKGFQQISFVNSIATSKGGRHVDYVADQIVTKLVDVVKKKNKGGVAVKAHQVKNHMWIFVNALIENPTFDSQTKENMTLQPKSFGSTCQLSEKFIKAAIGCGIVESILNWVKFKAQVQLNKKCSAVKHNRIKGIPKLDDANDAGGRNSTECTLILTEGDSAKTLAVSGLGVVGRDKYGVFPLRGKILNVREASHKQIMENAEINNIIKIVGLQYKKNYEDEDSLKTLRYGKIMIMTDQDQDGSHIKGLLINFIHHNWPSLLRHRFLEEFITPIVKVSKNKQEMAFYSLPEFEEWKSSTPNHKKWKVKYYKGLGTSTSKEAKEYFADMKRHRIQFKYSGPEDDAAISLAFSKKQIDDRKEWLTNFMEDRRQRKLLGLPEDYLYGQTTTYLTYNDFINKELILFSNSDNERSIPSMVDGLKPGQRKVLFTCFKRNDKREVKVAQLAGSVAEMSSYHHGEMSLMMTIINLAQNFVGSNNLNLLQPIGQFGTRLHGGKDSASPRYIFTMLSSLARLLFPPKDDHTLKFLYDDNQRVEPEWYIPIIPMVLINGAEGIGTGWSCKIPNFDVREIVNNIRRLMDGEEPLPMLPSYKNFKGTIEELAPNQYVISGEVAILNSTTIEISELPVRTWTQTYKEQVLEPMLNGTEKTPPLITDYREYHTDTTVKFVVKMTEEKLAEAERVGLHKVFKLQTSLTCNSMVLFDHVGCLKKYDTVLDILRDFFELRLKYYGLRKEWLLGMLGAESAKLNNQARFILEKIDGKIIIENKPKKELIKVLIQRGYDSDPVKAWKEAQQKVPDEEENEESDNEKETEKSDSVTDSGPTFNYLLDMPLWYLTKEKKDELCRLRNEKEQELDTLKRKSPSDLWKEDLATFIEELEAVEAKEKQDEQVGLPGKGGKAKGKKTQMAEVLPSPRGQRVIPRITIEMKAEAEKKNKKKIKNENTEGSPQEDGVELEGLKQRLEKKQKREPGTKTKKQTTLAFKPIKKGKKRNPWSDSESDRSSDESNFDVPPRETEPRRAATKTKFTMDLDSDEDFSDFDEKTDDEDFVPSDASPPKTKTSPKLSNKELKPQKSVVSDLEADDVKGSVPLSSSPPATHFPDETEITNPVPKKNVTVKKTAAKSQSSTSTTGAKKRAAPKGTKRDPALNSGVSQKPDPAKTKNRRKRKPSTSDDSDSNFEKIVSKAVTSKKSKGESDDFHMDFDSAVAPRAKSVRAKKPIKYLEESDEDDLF

Row | SMILES | Hemmung der Topoisomerase II (kDNA Assay) (DNA-Topoisomerase II) | EC50 (A549; A549, A549) | Hemmung der Tubulin-Polymerisation, EC50 (Rindertubulin) | EC50 (RKOp27; [1]) | EC50 (RKOp27; [2]) | EC50 (P388ADR; [3]) | EC50 (PC3; PC-3, PC3) | EC50 (DU145; DU-145, DU145) | EC50 (HT29; HT-29, HT29) | EC50 (A549; A549) | EC50 (P388ADR; Mus musculus, P388/ADR, read-out: XTT Proliferationsassay, EC50 P388ADR) | EC50 (PC3; PC-3) | EC50 (DU145; DU-145) | EC50 (HT29; HT-29)
1 | O=C(Nc1ccc2ncccc2c1)C(=S)c1cn(Cc2ccc(Cl)cc2)c2ccccc12 [Verbindung 4, 2-[1-(4-Chlorbenzyl)-1 H-indol-3-yl]-N-chinolin-6-yl-2-thioxoacetamid] | signifikante Hemmung der Topoisomerase II | 0.041 µg/mL (≈ 0.0899 µM) | 0.97 µg/mL | 0.053 µg/mL (≈ 0.116 µM) | > 3.16 µg/mL | 0.051 µg/mL (≈ 0.112 µM) | 0.027 µg/mL (≈ 0.0592 µM) | 0.045 µg/mL (≈ 0.0987 µM) | 0.04 µg/mL (≈ 0.0877 µM) |  |  |  |  | 
2 | O=C(Nc1ccc2ncccc2c1)C(=O)c1cn(Cc2ccc(Cl)cc2)c2ccccc12 [Verbindung 2, 2-[1-(4-Chlor-benzyl)-1 H-indol-3-yl]-2-oxo-N-chinolin-6-yl-acetamid] | signifikante Hemmung der Topoisomerase II |  | 1.23 µg/mL | 0.047 µg/mL (≈ 0.107 µM) | > 3.16 µg/mL |  |  |  |  | 0.05 µg/mL (≈ 0.114 µM) | 0.056 µg/mL (≈ 0.127 µM) | 0.016 µg/mL (≈ 0.0364 µM) | 0.047 µg/mL (≈ 0.107 µM) | 0.027 µg/mL (≈ 0.0614 µM)
3 | O=C(Nc1cnc2nccnc2c1)C(=O)c1cn(Cc2ccc(Cl)cc2)c2ccccc12 [Verbindung 5, 2-[1-(4-Chlor-benzyl)-1H-indol-3-yl]-2-oxo-N-pyrido[2,3-b]pyrazin-7-yl-acetamid] | Inhibierung der Topoisomerase II | 0.017 µg/mL (≈ 0.0385 µM) | 0.71 µg/mL | 0.065 µg/mL (≈ 0.147 µM) | > 3.16 µg/mL | 0.019 µg/mL (≈ 0.043 µM) | 0.03 µg/mL (≈ 0.0679 µM) | 0.035 µg/mL (≈ 0.0792 µM) | 0.07 µg/mL (≈ 0.158 µM) |  |  |  |  | 
